The test system of data set [1] is A549 (ATCC CCL-185) cells. Put plainly: in vitro cytotoxic assay, A549 cells. The data set is classed as cell-based. Conditions: 72 h; A549 human lung carcinoma monolayer; three days of incubation; Crystal Violet staining; approximate IC50. How it is done: (§1) Cells were maintained in logarithmic phase of growth in Eagle's Minimum Essential Medium, with Earle's Balanced Salts, with 2.0 mM L-glutamine, with non-essential amino acids, without sodium bicarbonate (EMEM/neaa); supplemented with 10% Fetal Calf Serum (FCS), 10^−2 M sodium bicarbonate and 0,1 g/l penicillin-G+streptomycin sulfate.
(§2) A screening procedure has been carried out to determine and compare the antitumour activity of these compounds, using an adapted form of the method described by Raymond J. Bergeron, Paul F. Cavanaugh Jr., Steven J. Kline, Robert G. Hughes, Jr., Gary T. Elliot and Carl W. Porter. Antineoplastic and antiherpetic activity of spermidine catecholamide iron chelators. Biochem. Bioph. Res. Comm. 1984, 121, 848-854. The antitumour cells employed were P388 (ATCC CCL-46) (suspension culture of a lymphoid neoplasm from DBA/2 mouse), A549 (ATCC CCL-185) (monolayer culture of a human lung carcinoma), HT-29 (ATCC HTB-38) (monolayer culture of a human colon carcinoma) and SK-MEL-28 (ATCC HTB-72) (monolayer culture of a human melanoma).
(§3) A549 (ATCC CCL-185), HT-29 (ATCC HTB-38) and SK-MEL-28 (ATCC HTB-72) cells were seeded into 16 mm wells at 2×10^4 cells per well in 1 ml aliquots of MEM 10FCS containing the indicated concentration of drug. A separate set of cultures without drug was seeded as control growth to ensure that cells remained in exponential phase of growth. All determinations were carried out in duplicate. After three days of incubation at 37° C., 10% CO2 in a 98% humid atmosphere, the wells were stained with 0.1% Crystal Violet. An approximately IC50 was determined by comparing the growth in wells with drug to the growth in wells control.
(§4) The results of the in vitro cytotoxic assays for these compounds (4a), (4b), (4c), (4d), (11a), (12a), (13a), (13b), and (14a) with the cellular lines P388 (ATCC CCL-46), A549 (ATCC CCL-185), HT-29 (ATCC HTB-38) and SK-MEL-28 (ATCC HTB-72) are shown in the following Table.

For another data set, the system named is P388 (ATCC CCL-46) cells. Put plainly: in vitro cytotoxic assay, P388 cells. The data set is classed as cell-based. To be noted: 72 h; P388 lymphoid neoplasm from DBA/2 mouse, suspension culture; three days of incubation; approximate IC50 by growth vs control. As to the method:
as §1, §2
P388 (ATCC CCL-46) cells were seeded into 16 mm wells at 1×10^4 cells per well in 1 ml aliquots of MEM 5FCS containing the indicated concentration of drug. A separate set of cultures without drug was seeded as control growth to ensure that cells remained in exponential phase of growth. All determinations were carried out in duplicate.
as §4

Data set [2] deals with SK-MEL-28 (ATCC HTB-72) cells. As to the kind of experiment: in vitro cytotoxic assay, SK-MEL-28 cells. The data set is classed as cell-based. Conditions: 72 h; SK-MEL-28 human melanoma monolayer; three days of incubation; Crystal Violet staining; approximate IC50. How it is done:
as §1, §2, §3, §4

Data set [3] relates to HT-29 (ATCC HTB-38) cells. As to the kind of experiment: in vitro cytotoxic assay, HT-29 cells. The data set is classed as cell-based. Conditions: 72 h; HT-29 human colon carcinoma monolayer; three days of incubation; Crystal Violet staining; approximate IC50. As to the method:
as §1, §2, §3, §4

Data on nine compounds can be found in US6525063B2, “Antitumour 1,5-diazaanthraquinones” (Universidad Complutense de Madrid, priority 1998, dated 2003).

A value given as a limit tells only on which side of the number the result lay.

By IC50 is commonly meant the midpoint of a concentration-inhibition curve. A lower IC50 goes with higher potency. In general, melting point refers to the temperature, or range, at which the solid turns liquid. In the case of `CCc1cnc2c(c1)C(=O)c1ncc(CC)cc1C2=O` [(4a), 3,7-Diethyl-1,5-diazaanthraquinone], the melting point was in the range of 218 to 220 °C. The 50% inhibitory concentration (IC50) in data set [1] came to 0.05 µM. Half-maximal inhibition in the data set with P388 (ATCC CCL-46) cells (IC50) was put at 0.45 µM. The compound also registered a half-inhibitory concentration (IC50) in data set [2] of 0.05 µM. Also, the IC50 in data set [3] was found to be 0.19 µM.
For the compound `Cc1cnc2c(c1)C(=O)c1ncc(C)cc1C2=O` [(4b), 3,7-Dimethyl-1,5-diazaanthraquinone], the melting point is over 300 °C. In data set [1], this compound showed an IC50 of 0.05 µM. The compound further gave an IC50 in the data set on P388 (ATCC CCL-46) cells of 7.35 µM. The IC50 in data set [2] amounted to 0.11 µM. Further, in data set [3], the IC50 amounted to 0.51 µM.
`Cc1ccnc2c1C(=O)c1nccc(C)c1C2=O` [(4c), 4,8-Dimethyl-1,5-diazaanthraquinone] gave a melting point of 253 to 254 °C. The IC50 in data set [1] is 0.5 µM. For the same compound, half-maximal inhibition with P388 (ATCC CCL-46) cells (IC50) was put at 4.2 µM. The compound also registered an IC50 in data set [2] of 1.05 µM. The compound also gave an IC50 in data set [3] of 1.05 µM.
In turn, `CCc1c(C)cnc2c1C(=O)c1ncc(C)c(CC)c1C2=O` [(4d), 4,8-Diethyl-3,7-dimethyl-1,5-diazaanthraquinone] came in with a melting point of 180 to 182 °C. The compound also came in with an IC50 in data set [1] of 3.4 µM. Also, in the data set with P388 (ATCC CCL-46) cells, the IC50 is 3.4 µM. Moreover, in data set [2], the IC50 is 3.4 µM. Moreover, in data set [3], inhibition was half-maximal at 3.4 µM (IC50).
As to `Cc1cnc2c(c1)C(=O)c1nccc(Cl)c1C2=O` [(11a), 8-Chloro-3-methyl-1,5-diazaanthraquinone], the melting point was in the range of 208 to 210 °C. In addition, in data set [1], half-maximal inhibition (IC50) required 0.03 µM. In the data set on P388 (ATCC CCL-46) cells, this compound gave an IC50 of 0.15 µM. Moreover, the midpoint of inhibition in data set [2], the IC50, lay at 0.03 µM. In data set [3], the IC50 came out at 0.04 µM.
Consider `CC1C=CN(N(C)C)C2=C1C(=O)c1nccc(Cl)c1C2=O` (stereo not shown) [(12a), 8-Chloro-1-dimethylamino-4-methyl-1,4-dihydro-1,5-diazaanthraquinone], for which the IC50 in data set [1] is 0.33 µM; in the data set on P388 (ATCC CCL-46) cells, 3.29 µM; in data set [2], 0.33 µM; in data set [3] it was 1.65 µM.
In the case of `Cc1ccnc2c1C(=O)c1nccc(Cl)c1C2=O` [(13a), 4-Chloro-8-methyl-1,5-diazaanthraquinone], the melting point is over 300 °C. Besides, the IC50 in data set [1] came to 0.19 µM. In the data set with P388 (ATCC CCL-46) cells, this compound came in with an IC50 of 3.87 µM. The compound also had an IC50 in data set [2] of 0.19 µM. Moreover, the IC50 in data set [3] stood at 1.93 µM.
Turning to `O=C1c2nccc(-c3ccccc3[N+](=O)[O-])c2C(=O)c2nccc(Cl)c21` [(13b), 4-Chloro-8-(o-nitrophenyl)-1,5-diazaanthraquinone], the IC50 in data set [1] came to 0.03 µM; in the data set with P388 (ATCC CCL-46) cells, 0.27 µM; in data set [2] it was 0.07 µM; in data set [3], 0.27 µM.
`Cc1ccnc2c1C(=O)c1nccc(N(C)C)c1C2=O` [(14a), 4-Dimethylamino-8-methyl-1,5-diazaanthraquinone] returned a melting point of 97 to 100 °C. Further, the IC50 in data set [1] was determined as 0.37 µM. This compound yielded an IC50 in the data set on P388 (ATCC CCL-46) cells of 9.36 µM. The compound also displayed an IC50 in data set [2] of 0.37 µM. For the same compound, in data set [3], the IC50 is 0.94 µM.
